According to patent US20230234948A1, “CYCLOPROPYL DIHYDROQUINOLINE SULFONAMIDE COMPOUNDS” (AMGEN INC., priority 2020, published 2023):

Biological target: T1, Human NaV1.7 (Homo sapiens, UniProt Q15858)
T1 construct: expressed in transfected cells; host or cells: Spiking HEK cells (without Kir2.1 transfection)
Test: Ionworks Barracuda (IWB) automated patch clamp assay
Assay type: cell-based
Settings: human NaV1.7 in HEK cells, population patch-clamp, state- and use-dependent voltage protocol; read-out: hNaV1.7 IWB-U IC50
Description: Ionworks Barracuda (IWB) Automated Patch Clamp Assay (Same Protocol for Both Human and Mouse)
Human NaV1.7 currents were recorded in population patch-clamp mode with the IWB automated electrophysiology system (Molecular Devices, LLC, Sunnyvale, Calif.). Spiking HEK cells (without Kir2.1 transfection) were cultured and prepared for recordings as previously described for IonWorks Quattro testing^1. The external solution consisted of the following (in mM): NaCl 140, KCl 5, CaCl2 2, MgCl2 1, HEPES 10, and glucose 11, pH 7.4, with N-methyl-D-glucamine at 320 mOsmol. […] From a holding potential of −110 mV, currents were elicited by a train of 26 depolarizations of 150 ms duration to −20 mV at a frequency of 5 Hz. Cells were then clamped to −20 mV for a period of 4 minutes in the presence of a single concentration of test compound. Following this compound incubation period, cells were clamped to −110 mV for three seconds to recover unbound channels and put through the same 26 pulse voltage protocol as above. Peak inward current during the 26th pulse to −20 mV in the presence of compound was divided by the peak inward current evoked by the 26th pulse to −20 mV in the absence of compound to determine percent inhibition. Concentration-response curves of percent inhibition as a function of concentration were generated to calculate IC50 values as described in Kornecook, T. J.; Yin, R.; Altmann, S.; et al. Pharmacologic Characterization of AMG8379, a Potent and Selective Small Molecule Sulfonamide Antagonist of the Voltage-Gated Sodium Channel NaV1. 7.
The potency of the compounds of the present invention were evaluated on human NaV1.7 channels using the above described IonWorks Barracuda automated electrophysiology platform that evaluates the ability of compounds to block sodium conductance through NaV1.7 channels. A voltage-protocol that prosecutes both state-dependent as well as use-dependent inhibition was used as these modes of action are thought to be more relevant for the native state of NaV1.7 channels in pain sensing neurons in vivo.

T1 sequence (Q15858 whole entry): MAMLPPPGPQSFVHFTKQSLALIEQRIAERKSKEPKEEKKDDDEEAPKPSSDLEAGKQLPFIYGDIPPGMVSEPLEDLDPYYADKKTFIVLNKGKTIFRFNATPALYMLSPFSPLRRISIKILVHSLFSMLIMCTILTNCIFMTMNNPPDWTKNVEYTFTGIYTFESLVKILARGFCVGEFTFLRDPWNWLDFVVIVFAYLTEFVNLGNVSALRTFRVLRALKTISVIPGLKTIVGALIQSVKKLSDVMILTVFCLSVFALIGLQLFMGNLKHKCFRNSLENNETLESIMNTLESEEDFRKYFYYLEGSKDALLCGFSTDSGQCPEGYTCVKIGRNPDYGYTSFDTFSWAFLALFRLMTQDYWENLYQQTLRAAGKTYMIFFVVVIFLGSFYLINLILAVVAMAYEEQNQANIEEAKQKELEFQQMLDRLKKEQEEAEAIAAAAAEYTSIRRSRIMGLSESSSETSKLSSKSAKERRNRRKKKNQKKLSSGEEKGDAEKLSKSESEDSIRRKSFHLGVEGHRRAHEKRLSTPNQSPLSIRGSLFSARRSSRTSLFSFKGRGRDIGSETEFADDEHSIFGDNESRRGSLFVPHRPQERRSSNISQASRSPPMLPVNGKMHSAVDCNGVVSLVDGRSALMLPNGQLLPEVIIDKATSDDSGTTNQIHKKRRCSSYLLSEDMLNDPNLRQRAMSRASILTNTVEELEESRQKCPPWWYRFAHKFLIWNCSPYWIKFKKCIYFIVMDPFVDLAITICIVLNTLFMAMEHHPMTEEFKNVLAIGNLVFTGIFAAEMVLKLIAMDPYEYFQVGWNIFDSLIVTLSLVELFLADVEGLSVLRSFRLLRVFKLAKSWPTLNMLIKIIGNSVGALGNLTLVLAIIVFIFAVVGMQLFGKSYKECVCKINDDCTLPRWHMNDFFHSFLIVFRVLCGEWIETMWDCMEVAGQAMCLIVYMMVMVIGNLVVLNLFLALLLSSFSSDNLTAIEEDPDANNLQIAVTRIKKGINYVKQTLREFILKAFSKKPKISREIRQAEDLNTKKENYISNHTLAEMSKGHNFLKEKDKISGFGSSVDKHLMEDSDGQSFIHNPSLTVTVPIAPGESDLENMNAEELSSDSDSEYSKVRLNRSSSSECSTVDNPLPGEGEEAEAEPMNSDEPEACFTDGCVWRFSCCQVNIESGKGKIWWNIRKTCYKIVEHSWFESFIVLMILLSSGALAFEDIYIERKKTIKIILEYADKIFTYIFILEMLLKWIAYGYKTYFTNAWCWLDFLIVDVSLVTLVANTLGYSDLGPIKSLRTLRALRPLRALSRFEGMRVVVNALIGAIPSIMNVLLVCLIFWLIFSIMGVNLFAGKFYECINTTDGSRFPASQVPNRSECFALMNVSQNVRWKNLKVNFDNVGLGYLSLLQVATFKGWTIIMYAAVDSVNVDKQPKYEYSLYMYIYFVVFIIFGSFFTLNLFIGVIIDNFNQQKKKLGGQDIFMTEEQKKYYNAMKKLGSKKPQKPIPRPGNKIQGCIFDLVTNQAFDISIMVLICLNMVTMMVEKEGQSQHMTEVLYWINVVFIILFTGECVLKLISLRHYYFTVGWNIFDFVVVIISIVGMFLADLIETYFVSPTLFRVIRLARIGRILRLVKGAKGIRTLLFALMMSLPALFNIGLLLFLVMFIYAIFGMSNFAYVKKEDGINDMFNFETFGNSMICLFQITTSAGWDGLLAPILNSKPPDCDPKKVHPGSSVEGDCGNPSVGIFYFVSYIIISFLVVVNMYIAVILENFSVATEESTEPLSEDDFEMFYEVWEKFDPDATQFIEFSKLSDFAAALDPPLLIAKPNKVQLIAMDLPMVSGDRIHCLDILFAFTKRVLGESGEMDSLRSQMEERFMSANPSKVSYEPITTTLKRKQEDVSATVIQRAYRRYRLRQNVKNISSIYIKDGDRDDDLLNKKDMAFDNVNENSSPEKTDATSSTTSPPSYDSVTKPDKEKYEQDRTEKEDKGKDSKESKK

First: COc1cc([C@H]2C[C@@H]2C(F)(F)F)c(F)cc1-n1c(=O)ccc2cc(S(=O)(=O)Nc3ncccn3)ccc21 (atropisomer, axis not shown; (P)) [Example 21, (P)-1-(5-fluoro-2-methoxy-4-((1S,2S)-2-(trifluoromethyl)cyclopropyl)phenyl)-2-oxo-N-(pyrimidin-2-yl)-1,2-dihydroquinoline-6-sulfonamide]
Second: COc1cc([C@@H]2C[C@H]2C(F)(F)F)c(F)cc1-n1c(=O)ccc2cc(S(=O)(=O)Nc3cccnn3)ccc21 (atropisomer, axis not shown; (P)) [Example 16, (P)-1-(5-fluoro-2-methoxy-4-((1R,2R)-2-(trifluoromethyl)cyclopropyl)phenyl)-2-oxo-N-(pyridazin-3-yl)-1,2-dihydroquinoline-6-sulfonamide]
The IC50 of the first is 1.8-fold higher: 35 nM for the first, 19 nM for the second. The second is the more potent here.

`COc1cc([C@@H]2C[C@H]2C(F)(F)F)ccc1-n1c(=O)ccc2cc(S(=O)(=O)Nc3ccon3)c(F)cc21` (atropisomer, axis not shown; (P)) [Example 47, (P)-7-fluoro-N-(isoxazol-3-yl)-1-(2-methoxy-4-((1R,2R)-2-(trifluoromethyl)cyclopropyl)phenyl)-2-oxo-1,2-dihydroquinoline-6-sulfonamide] and `COc1cc([C@H]2C[C@@H]2C(F)(F)F)ccc1-n1c(=O)ccc2cc(S(=O)(=O)Nc3ccon3)c(F)cc21` (atropisomer, axis not shown; (P)) [Example 48, (P)-7-fluoro-N-(isoxazol-3-yl)-1-(2-methoxy-4-((1S,2S)-2-(trifluoromethyl)cyclopropyl)phenyl)-2-oxo-1,2-dihydroquinoline-6-sulfonamide] are within 1.5-fold of each other in IC50: 12 nM for the first, 11 nM for the second.

`COc1cc([C@H]2CC2(F)F)c(F)cc1-n1c(=O)ccc2cc(S(=O)(=O)Nc3ccon3)ccc21` (atropisomer, axis not shown; (P)) [Example 10, (P)-(R)-1-(4-(2,2-difluorocyclopropyl)-5-fluoro-2-methoxyphenyl)-N-(isoxazol-3-yl)-2-oxo-1,2-dihydroquinoline-6-sulfonamide] and `COc1cc([C@@H]2CC2(F)F)c(F)cc1-n1c(=O)ccc2cc(S(=O)(=O)Nc3ccon3)ccc21` (atropisomer, axis not shown; (P)) [Example 11, (P)-(S)-1-(4-(2,2-difluorocyclopropyl)-5-fluoro-2-methoxyphenyl)-N-(isoxazol-3-yl)-2-oxo-1,2-dihydroquinoline-6-sulfonamide] are within 1.5-fold of each other in IC50: 66 nM for the first, 59 nM for the second.

First: COc1cc(C2(C(F)(F)F)CC2)c(F)cc1-n1c(=O)ccc2cc(S(=O)(=O)Nc3ccon3)ccc21 (single isomer, unassigned) [Example 22, (P)-1-(5-fluoro-2-methoxy-4-(1-(trifluoromethyl)cyclopropyl)phenyl)-N-(isoxazol-3-yl)-2-oxo-1,2-dihydroquinoline-6-sulfonamide]
Second: COc1cc(C2(C(F)(F)F)CC2)c(Cl)cc1-n1c(=O)ccc2cc(S(=O)(=O)Nc3ccon3)ccc21 (atropisomer, axis not shown; (P)) [Example 24, (P)-1-(5-chloro-2-methoxy-4-(1-(trifluoromethyl)cyclopropyl)phenyl)-N-(isoxazol-3-yl)-2-oxo-1,2-dihydroquinoline-6-sulfonamide]
The IC50 of the first is 2.3-fold higher: 14 nM for the first, 6 nM for the second.

Going from `COc1cc([C@H]2C[C@@H]2C(F)(F)F)c(Cl)cc1-n1c(=O)ccc2cc(S(=O)(=O)Nc3ccon3)ccc21` (atropisomer, axis not shown; (P)) [Example 19, (P)-1-(5-chloro-2-methoxy-4-((1S,2S)-2-(trifluoromethyl)cyclopropyl)phenyl)-N-(isoxazol-3-yl)-2-oxo-1,2-dihydroquinoline-6-sulfonamide] to `COc1cc([C@H]2C[C@@H]2C(F)(F)F)c(F)cc1-n1c(=O)ccc2cc(S(=O)(=O)Nc3ccon3)ccc21` (atropisomer, axis not shown; (P)) [Example 4, (P)-1-(5-fluoro-2-methoxy-4-((1S,2S)-2-(trifluoromethyl)cyclopropyl)phenyl)-N-(isoxazol-3-yl)-2-oxo-1,2-dihydroquinoline-6-sulfonamide], the IC50 rises from 6 nM to 11 nM (1.8-fold). The first is the more potent here.

Compared with `COc1cc(C2(C(F)(F)F)CC2)c(Cl)cc1-n1c(=O)ccc2cc(S(=O)(=O)Nc3ncccn3)ccc21` (atropisomer, axis not shown; (P)) [Example 25, (P)-1-(5-chloro-2-methoxy-4-(1-(trifluoromethyl)cyclopropyl)phenyl)-2-oxo-N-(pyrimidin-2-yl)-1,2-dihydroquinoline-6-sulfonamide], `COc1cc([C@@H]2C[C@H]2C(F)(F)F)c(F)cc1-n1c(=O)ccc2cc(S(=O)(=O)Nc3ncns3)ccc21` (atropisomer, axis not shown; (P)) [Example 34, (P)-1-(5-fluoro-2-methoxy-4-((1R,2R)-2-(trifluoromethyl)cyclopropyl)phenyl)-2-oxo-N-(1,2,4-thiadiazol-5-yl)-1,2-dihydroquinoline-6-sulfonamide] is 4.4-fold lower in IC50: 22 nM for the first, 5 nM for the second.

Compound `COc1cc([C@@H]2C[C@H]2C(F)(F)F)c(F)cc1-n1c(=O)ccc2cc(S(=O)(=O)Nc3ccon3)ccc21` (racemic) [Example 3, trans-1-(5-fluoro-2-methoxy-4-(2-(trifluoromethyl)cyclopropyl)phenyl)-N-(isoxazol-3-yl)-2-oxo-1,2-dihydroquinoline-6-sulfonamide] has an IC50 of 23 nM.

System: CYP3A4
Test: Human CYP 3A4 induction assay (mRNA, cryopreserved human hepatocytes)
Assay type: in vitro ADME
Settings: 10 uM test compound, 72 hours, percent of control (rifampin positive control)
Description: Human CYP 3A4 Induction Assay
Cryopreserved human hepatocytes were seeded in 96-well collagen coated plates at 70,000 cells per well in hepatocyte plating media (HPM, final concentrations: 1× Dulbecco's Modified Eagle's Medium, 0.1 μM dexamethasone, 10% fetal bovine serum, 1×ITS, 1×PSG) followed by incubation at 37° C. under 5% CO2 and 90% relative humidity for 2 days to allow hepatocytes to form a confluent layer. On Day 3, hepatocytes were treated with either test compound or rifampin (20 μM, positive control for CYP3A induction) prepared in hepatocyte incubation media ((HIM, final concentrations: 1× William's Medium E, 0.1 μM dexamethasone, 1×ITS, 1×PSG). Treatment was performed for 72 hours with either 2 concentrations (2 μM or 10 μM) or a range of concentrations (0.001 μM to 100 μM) of the test compound to obtain full dose-response curve. Fresh media containing the relevant concentrations of the test compound was replaced every day until the samples were processed. After 72 hours of incubation, samples were processed for mRNA analysis using bDNA technology using manufacturer's instructions (Affymetrix, Fremont, Calif.). Cell viability was tested at the end of the experiment using MTT assay kit (Roche Diagnostics, Basel, Switzerland). Data was analyzed and presented as percent of control (POC) and Emax and EC50 obtained when appropriate according to guidance from Center for Drug Evaluation and Research (CDER), 2006, Guidance for Industry, Drug Interaction Studies—Study Design, Data Analysis, and Implications for Dosing and Labeling.
Cryopreserved human hepatocytes were seeded in 96-well collagen coated plates at 70,000 cells per well in hepatocyte plating media (HPM, final concentrations: 1× Dulbecco's Modified Eagle's Medium, 0.1 μM dexamethasone, 10% fetal bovine serum, 1×ITS, 1×PSG) followed by incubation at 37° C. under 5% CO2 and 90% relative humidity for 2 days to allow hepatocytes to form a confluent layer. On Day 3, hepatocytes were treated with either test compound or rifampin (20 μM, positive control for CYP3A induction) prepared in hepatocyte incubation media ((HIM, final concentrations: 1× William's Medium E, 0.1 μM dexamethasone, 1×ITS, 1×PSG). Treatment was performed for 72 hours with either 2 concentrations (2 μM or 10 μM) or a range of concentrations (0.001 μM to 100 μM) of the test compound to obtain full dose-response curve. Fresh media containing the relevant concentrations of the test compound was replaced every day until the samples were processed. After 72 hours of incubation, samples were processed for mRNA analysis using bDNA technology using manufacturer's instructions (Affymetrix, Fremont, Calif.). Cell viability was tested at the end of the experiment using MTT assay kit (Roche Diagnostics, Basel, Switzerland). Data was analyzed and presented as percent of control (POC) and Emax and EC50 obtained when appropriate, as described in Halladay, J. et al, 2012, An “all-inclusive” 96-well cytochrome P450 induction method: Measuring enzyme activity, mRNA levels, protein levels, and cytotoxicity from one well using cryopreserved human hepatocytes, Pharmacological and Toxicological Methods, 66:270-275.
The cytochrome P450 (CYP) is a well-known superfamily of enzymes that are responsible for the oxidative and reductive metabolic transformation of medications used in clinical practice. In addition, the CYP enzymes are commonly associated with causing many clinically relevant drug-drug interactions. […]

Going from `COc1cc([C@@H]2C[C@H]2C(F)(F)F)c(F)cc1-n1c(=O)ccc2cc(S(=O)(=O)Nc3nncs3)ccc21` (atropisomer, axis not shown; (P)) [Example 40, (P)-1-(5-fluoro-2-methoxy-4-((1R,2R)-2-(trifluoromethyl)cyclopropyl)phenyl)-2-oxo-N-(1,3,4-thiadiazol-2-yl)-1,2-dihydroquinoline-6-sulfonamide] to `COc1cc([C@@H]2C[C@H]2C(F)(F)F)c(F)cc1-n1c(=O)ccc2cc(S(=O)(=O)Nc3ccon3)c(F)cc21` (atropisomer, axis not shown; (P)) [Example 45, (P)-7-fluoro-1-(5-fluoro-2-methoxy-4-((1R,2R)-2-(trifluoromethyl)cyclopropyl)phenyl)-N-(isoxazol-3-yl)-2-oxo-1,2-dihydroquinoline-6-sulfonamide], the “CYP3A4 mRNA Induct Hu 10 uM POC” value rises from 10.79% to 24.57%.
